We go through 1 compound from PMC12226389, “Icariin interacts with IGFBP3 to alleviate diabetic cataract through PI3K/AKT signaling pathway” (iScience, 2025).

This assay has as its target T1, IGFBP3 (Homo sapiens, UniProt P17936).
T1 construct: protein immobilised on CM5 chip
As to the kind of experiment: SPR (Biacore T200, CM5 chip, immobilised IGFBP3). It counts as binding.

T1 sequence (P17936 28-291): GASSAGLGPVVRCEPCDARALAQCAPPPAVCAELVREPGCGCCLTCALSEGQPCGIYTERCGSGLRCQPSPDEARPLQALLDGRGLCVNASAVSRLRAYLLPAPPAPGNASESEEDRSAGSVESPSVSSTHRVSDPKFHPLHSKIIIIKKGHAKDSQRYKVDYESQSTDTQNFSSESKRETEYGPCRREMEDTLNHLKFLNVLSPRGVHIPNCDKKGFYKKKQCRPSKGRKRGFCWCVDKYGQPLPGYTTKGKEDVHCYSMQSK

The term Kd denotes a measure of binding affinity in units of concentration. Low readings indicate tighter binding, high ones weaker binding. The compound `COc1ccc(-c2oc3c(CC=C(C)C)c(O[C@@H]4O[C@H](CO)[C@@H](O)[C@H](O)[C@H]4O)cc(O)c3c(=O)c2O[C@@H]2O[C@@H](C)[C@H](O)[C@@H](O)[C@H]2O)cc1` [Icariin] registered a Kd of 131 µM.
